US5776903A, “Peptide derivatives usable as zinc endopeptidase 24-15 inhibitors” (Commissariat A l'Energie Atomique, priority 1995, dated 1998)

Key:
[1] = target: endopeptidase 24-15 of the rat (Rattus norvegicus, UniProt P24155); conditions: as described by Dando et al; read-out: inhibition constant Ki with respect to endopeptidase 24-15 of the rat; cited from earlier work
endopeptidase 24-16 = endopeptidase 24-16 (Homo sapiens, UniProt Q9BYT8); assay: Inhibition of neurotensin degradation by purified endopeptidase 24-16 (HPLC), inhibition constant Ki; format: biochemical; conditions: neurotensin 20 μmole/l, 1 hour at 30° C., tris-HCl pH 7.5
Chain of endopeptidase 24-16 (Q9BYT8 38-704): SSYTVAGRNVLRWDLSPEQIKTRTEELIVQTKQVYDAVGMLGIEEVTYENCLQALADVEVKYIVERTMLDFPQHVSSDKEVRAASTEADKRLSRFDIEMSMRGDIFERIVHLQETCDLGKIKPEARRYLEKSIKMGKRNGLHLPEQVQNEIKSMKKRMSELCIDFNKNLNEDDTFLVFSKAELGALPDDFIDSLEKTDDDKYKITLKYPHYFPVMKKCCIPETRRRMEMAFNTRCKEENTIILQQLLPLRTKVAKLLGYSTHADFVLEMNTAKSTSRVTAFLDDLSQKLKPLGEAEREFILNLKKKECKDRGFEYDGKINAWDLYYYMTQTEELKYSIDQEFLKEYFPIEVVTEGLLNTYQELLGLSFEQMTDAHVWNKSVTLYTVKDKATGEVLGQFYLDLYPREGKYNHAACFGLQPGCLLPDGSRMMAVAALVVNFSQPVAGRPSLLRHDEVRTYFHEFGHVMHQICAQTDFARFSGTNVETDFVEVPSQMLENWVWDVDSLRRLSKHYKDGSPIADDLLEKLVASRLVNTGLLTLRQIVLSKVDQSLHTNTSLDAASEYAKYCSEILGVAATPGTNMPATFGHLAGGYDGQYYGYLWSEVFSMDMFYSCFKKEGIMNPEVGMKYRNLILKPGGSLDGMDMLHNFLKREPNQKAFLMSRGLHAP
Method: This example studies the inhibiting effect of the peptides of the invention with respect to endopeptidase 24-16.
To this end, incubation takes place for 1 hour at 30° C. of 2 nmole (20 μmole/l) of neurotensin, which is a known endopeptidase 24-16 substrate with 8 μg of endopeptidase 24-16 purified in a final volume of 100 μl of tris-HCl buffer, 50 mM, pH 7.5, in the absence of peptide (control) or in the presence of the peptide tested at concentrations from 10^-11 to 10^-7 mole/l. After 1 hour of incubation analysis takes place of the solutions by HPLC and the inhibition constant Ki of the tested peptide is determined.

endopeptidase 24-15 = endopeptidase 24-15 (Rattus norvegicus, UniProt P24155); assay: Inhibition of neurotensin degradation by purified endopeptidase 24-15 (HPLC), inhibition constant Ki; conditions: for SELECTIVITY (ratio Ki24-16 /Ki24-15): selectivity relative to endopeptidase 24-16
Chain of endopeptidase 24-15 (P24155 whole entry): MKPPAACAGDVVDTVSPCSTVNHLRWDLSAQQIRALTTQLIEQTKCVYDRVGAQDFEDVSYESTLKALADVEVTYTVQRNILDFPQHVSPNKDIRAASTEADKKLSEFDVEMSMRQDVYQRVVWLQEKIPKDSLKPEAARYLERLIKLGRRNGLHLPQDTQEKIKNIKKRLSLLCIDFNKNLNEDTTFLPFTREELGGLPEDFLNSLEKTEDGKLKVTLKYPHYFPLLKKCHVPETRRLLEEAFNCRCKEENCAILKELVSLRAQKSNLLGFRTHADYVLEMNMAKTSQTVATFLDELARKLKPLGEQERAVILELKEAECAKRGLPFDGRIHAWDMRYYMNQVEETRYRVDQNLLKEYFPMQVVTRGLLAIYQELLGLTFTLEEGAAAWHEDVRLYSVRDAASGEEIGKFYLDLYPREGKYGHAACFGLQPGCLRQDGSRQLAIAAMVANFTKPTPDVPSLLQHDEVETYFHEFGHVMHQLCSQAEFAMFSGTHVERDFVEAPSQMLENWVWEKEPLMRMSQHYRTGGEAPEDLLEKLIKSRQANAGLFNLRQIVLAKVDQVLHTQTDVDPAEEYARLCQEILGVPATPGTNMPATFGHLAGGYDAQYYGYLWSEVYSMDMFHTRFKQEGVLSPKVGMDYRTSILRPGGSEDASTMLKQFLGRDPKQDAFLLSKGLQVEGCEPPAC
Method: Incubation takes place for 1 hour at 37° C. of 2 nmole (20 μmole/l) of neurotensin, which is a known endopeptidase 24-15 substrate, with 7 μg of purified endopeptidase 24-15 in a final volume of 100 μl of tris-HCl buffer, 50 nM, pH 7.5, in the absence of an inhibitor (control) or in the presence of the peptide tested at concentrations from 10^-11 to 10^-7 mole/l. After 1 hour incubation analysis takes place of the solutions by HPLC. On the basis of this analysis the inhibition constant Ki of the tested peptide is determined.

Chain of endopeptidase 24-15 of the rat (P24155 whole entry): as above

Row | Compound | Ki [1] [µM] | Ki (endopeptidase 24-16) [µM] | Ki (endopeptidase 24-15) [µM] | SELECTIVITY (ratio Ki24-16 /Ki24-15) (endopeptidase 24-15)
1 | Cpp-Ala-Pro-Phe-pAb | 0.007 |  |  | 
2 | CC[C@H](C)[C@H](NC(=O)[C@H](CCCCN)NC(=O)C(C)CP(=O)(O)C(Cc1ccccc1)NC(=O)OCc1ccccc1)C(=O)O (mixture of isomers) [compound 27, Z--Phe .PSI. (PO2 CH2)Ala--Lys--Ile] |  | 1.27 | 0.00194 | 652
3 | C[C@@H](O)[C@H](NC(=O)[C@H](CCCNC(=N)N)NC(=O)CCP(=O)(O)C(Cc1ccccc1)NC(=O)OCc1ccccc1)C(=O)O (mixture of isomers) [compound 17, Z--Phe .PSI. (PO2 CH2)Gly--Arg--Thr] |  | 3.64 | 0.0352 | 103
4 | CSCC[C@H](NC(=O)[C@H](CCCNC(=N)N)NC(=O)CCP(=O)(O)C(Cc1ccccc1)NC(=O)OCc1ccccc1)C(=O)O (mixture of isomers) [compound 1, Z--Phe .PSI. (PO2 CH2)Gly--Arg--Met] |  | 0.132 | 0.00035 | 377
5 | C[C@H](NC(=O)[C@H](CCCNC(=N)N)NC(=O)CCP(=O)(O)C(Cc1ccccc1)NC(=O)OCc1ccccc1)C(=O)O (mixture of isomers) [compound 3, Z--Phe .PSI. (PO2 CH2)Gly--Arg--Ala] |  | 0.201 | 0.0022 | 91
6 | N=C(N)NCCC[C@H](NC(=O)CCP(=O)(O)C(Cc1ccccc1)NC(=O)OCc1ccccc1)C(=O)N[C@@H](CCCCN)C(=O)O (mixture of isomers) [compound 18, Z--Phe .PSI. (PO2 CH2)Gly--Arg--Lys] |  | 25.7 | 0.138 | 186
7 | N=C(N)NCCC[C@H](NC(=O)CCP(=O)(O)C(Cc1ccccc1)NC(=O)OCc1ccccc1)C(=O)N[C@@H](CC(N)=O)C(=O)O (mixture of isomers) [compound 13, Z--Phe .PSI. (PO2 CH2)Gly--Arg--Asn] |  | 1.38 | 0.0195 | 71
8 | CCCC[C@H](NC(=O)[C@H](CCCNC(=N)N)NC(=O)CCP(=O)(O)C(Cc1ccccc1)NC(=O)OCc1ccccc1)C(=O)O (mixture of isomers) [compound 2, Z--Phe .PSI. (PO2 CH2)Gly--Arg--Nle] |  | 0.213 | 0.0016 | 135
9 | CSCC[C@H](NC(=O)[C@H](CCCCN)NC(=O)C(C)CP(=O)(O)C(Cc1ccccc1)NC(=O)OCc1ccccc1)C(=O)O (mixture of isomers) [compound 22, Z--Phe .PSI. (PO2 CH2)Ala--Lys--Met] |  | 0.225 | 0.000115 | 1957
10 | CC(C)C[C@H](NC(=O)[C@H](CCCCN)NC(=O)C(C)CP(=O)(O)C(Cc1ccccc1)NC(=O)OCc1ccccc1)C(=O)O (mixture of isomers) [compound 26, Z--Phe .PSI. (PO2 CH2)Ala--Lys--Leu] |  | 0.893 | 0.00182 | 491
11 | N=C(N)NCCC[C@H](NC(=O)[C@H](CCCNC(=N)N)NC(=O)CCP(=O)(O)C(Cc1ccccc1)NC(=O)OCc1ccccc1)C(=O)O (mixture of isomers) [compound 12, Z--Phe .PSI. (PO2 CH2)Gly--Arg--Arg] |  | 2.04 | 0.014 | 145
